Read-outs that look alike come from different tables or passages of the source.
Tests used:
dwf7-1 plants [1] = assay: Feeding of BR biosynthetic intermediates to shoot tips of 3-week-old dwf7-1 plants; assay type: in vivo, Arabidopsis thaliana; conditions: for elongation of dwf7-1 pedicels in response to BRs: FIG. 4 legend, versus water, n>15
Protocol: (§1) Feeding experiments using biosynthetic intermediates were performed with 3-week-old mutant plants. The intermediates tested were diluted to the desired concentration with water containing 0.01% Tween 20. Two microliters of each brassinosteroid (BR) solution was applied daily to the shoot tips of plants by using a micro pipettman. After 1 week of treatment, total growth of inflorescence and pedicels was measured to the nearest millimeter (n=15).
To pinpoint the defective step in the BR biosynthetic pathway, dwf7-1 mutants were treated with BR biosynthetic intermediates. Due to undetectable bioactivity of some early intermediates (CR to 6-oxocampestanol) in bioassays (Fujioka et al. 1995; Choe et al. (1998) Plant Cell 10:231–243), these were not used. Instead, three biologically active compounds were chosen, 22-OHCR, 6-deoxoCT, and BL, for these feeding tests (see FIG. 1). Because the 22α-hydroxylation reaction is reported to be mediated by DWF4 (Choe et al. (1998) Plant Cell 10:231–243), biochemical complementation of dwf mutants other than dwf4 by 22-OHCR places the defective step upstream of CR.
(§2) Similarly, 3-week-old inflorescences of dwf7-2 were tested with 22-OHCR, 6-deoxoCT, teasterone, and BL.

dwf7-2 = assay: Feeding of BR biosynthetic intermediates to dwf7-2 inflorescences; assay type: in vivo, Arabidopsis thaliana; conditions: for elongation of pedicels and internodes of dwf7-2: 3-week-old inflorescences of dwf7-2; for biochemical complementation of the dwf7-2 allele: in vivo
Protocol: as §1
A second allele of dwf7 was identified among 43 dwarf mutants isolated by screening >50,000 M2 seeds of an EMS mutant population.
as §2

[2] = tested on: Wassilewskija-2 (Ws-2) wild type hypocotyls
Protocol: (§3) Biochemical complementation of dwf7-1 plants with different concentrations of brassinolide (BL) was performed in liquid media. BL-supplemented (control, 10^−9, 10^−8, and 10^−7 M) sterile liquid media (1.5 mL) was dispensed into wells of a 24-well plate (Corning Co., Corning, N.Y.). Three seedlings, germinated on agar-solidified media, were transferred into each well. After a week of growth with continuous shaking (230 rpm), the seedlings were lightly stained with toluidine blue, and hypocotyls and roots were measured to the nearest millimeter.

[3] = tested on: wild-type Arabidopsis seedlings; assay: Effects of compactin and MVA on growth of seedlings in liquid media; assay type: in vivo
dwf7-1 plants [4] = assay: GA3 spray on 3-week-old dwf7-1 plants; assay type: in vivo, Arabidopsis thaliana; conditions: 0.1 mM GA3 sprayed
wild-type plants = assay: GA3 spray on wild-type plants; assay type: in vivo, Arabidopsis thaliana; conditions: 0.1 mM GA3 sprayed
Description: The overall morphology of plants is dependent on three factors: cell size, shape, and number (Cosgrove (1997) Plant Cell 9:1031–1041). Various signals modulate these factors. Environmental signals, such as water, temperature, and light, are transduced to invoke internal hormone signals, including auxins, gibberellins, and BRs. These signals then trigger the cell elongation process, including but not limited to cell wall loosening by xyloglucan endotransglycosylases and expansins. Thus, a block in any of the signal transduction cascades from the environmental signals to the cell elongation process could result in dwarfism. Mutants resistant to or deficient in classic hormones, such as auxin (e.g., auxin resistant2 [axr2]; Timpte (1992) Genetics 138:1239–1249) and gibberellin ([ga1 to ga5 and gai]; Koornneef and van der Veen (1980) Theor. Appl. Genet. 58:257-263; Koornneef et al. (1985) Physiol. Plant. 65:33–39), often result in dwarfism. Thus, we first tested whether dwf7 is either rescued by or resistant to exogenous application of these hormones. […] The reduction of hypocotyl length in dwf7-1 was rescued by the application of BL (FIG. 3). Both wild-type and dwf7-1 plants responded to BL, but dwf7-1 plants were hypersensitive. The length of dwf7-1 hypocotyls was increased 160% in response to 1 nM BL as compared with the untreated control, whereas the wild-type responded marginally (5%).

[5] = tested on: Δ^7 sterol C-5 desaturase; conditions: enzyme prepared from maize microsomes; cited from earlier work

Protocol for dwf7-1 hypocotyls: as §3

CC(C)[C@H](C)C[C@H](O)[C@@H](C)[C@H]1CC[C@H]2[C@@H]3CC=C4C[C@@H](O)CC[C@]4(C)[C@H]3CC[C@]12C [22-OHCR, 22 α-hydroxycampesterol]
elongation of dwf7-1 pedicels in response to BRs (dwf7-1 plants [1]): greater than twofold | growth of treated dwf7-1 pedicels relative to wild-type (dwf7-1 plants [1]; in vivo): greater than or equal to that of the wild-type | rescue of dwf7-1 by exogenous application (dwf7-1 plants [1]; in vivo): Rescue | elongation of pedicels and internodes of dwf7-2 (dwf7-2): significant elongation | biochemical complementation of the dwf7-2 allele (dwf7-2): biochemically complemented

CC(C)[C@H](C)[C@@H](O)[C@H](O)[C@@H](C)[C@H]1CC[C@H]2[C@@H]3CC(=O)[C@H]4C[C@@H](O)CC[C@]4(C)[C@H]3CC[C@]12C [teasterone]
elongation of pedicels and internodes of dwf7-2 (dwf7-2): significant elongation

CC(C)[C@H](C)[C@@H](O)[C@H](O)[C@@H](C)[C@H]1CC[C@H]2[C@@H]3COC(=O)[C@H]4C[C@H](O)[C@H](O)C[C@]4(C)[C@H]3CC[C@]12C [BL, brassinolide]
elongation of dwf7-1 pedicels in response to BRs (dwf7-1 plants [1]): greater than twofold | length of cells in dwf7-1 stem after BL treatment (dwf7-1 plants [1]; daily application of 10^-7 M BL for 1 week): converted to the length of the wild type | growth of treated dwf7-1 pedicels relative to wild-type (dwf7-1 plants [1]; in vivo): greater than or equal to that of the wild-type | elongation of pedicels and internodes of dwf7-2 (dwf7-2): significant elongation | elongation of dwf7-1 hypocotyls (increase) (dwf7-1 hypocotyls; 1 nM BL, BL-supplemented liquid media, light-grown, compared with untreated control): 160% | rescue of dwf7-1 hypocotyls to wild-type length (dwf7-1 hypocotyls; 10 nM (10^-8 M) BL): completely rescued | rescue of dwf7-1 hypocotyls to wild-type length (dwf7-1 hypocotyls; 100 nM BL): completely rescued | response of dwf7-1 hypocotyls to BL (dwf7-1 hypocotyls; 10^-9 M BL, light-grown (FIG. 3)): responds | wild-type hypocotyl increase ([2]; 1 nM BL, BL-supplemented liquid media, light-grown): 5% | BL concentration giving the strongest response of the wild type ([2]; hypocotyl length, liquid media (FIG. 3)): 100 nM

C[C@@](O)(CCO)CC(=O)O [MVA, mevalonic acid]
reversal of compactin growth inhibition ([3]; 4.5 mM MVA applied simultaneously with 10 μM compactin): restored to the level of controls

CC[C@H](C)C(=O)O[C@H]1CCC=C2C=C[C@H](C)[C@H](CC[C@@H]3C[C@@H](O)CC(=O)O3)[C@H]21 [compactin, mevastatin]
growth of seedlings ([3]; 10 μM compactin, liquid media): almost completely inhibited

C=C1C[C@]23C[C@@]1(O)CC[C@H]2[C@@]12C=C[C@H](O)[C@@](C)(C(=O)O1)[C@H]2[C@@H]3C(=O)O [GA3]
rescue of the dwf7-1 phenotype (dwf7-1 plants [4]): did not rescue | increase of inflorescence height (dwf7-1 plants [4]; 3-week-old dwf7-1 plants): < 10% | increase of inflorescence height (wild-type plants): < 10%

[C-]#[O+] [carbon monoxide]
effect on enzyme [5]: insensitive

CC(C)[C@H](C)C[C@H](O)[C@@H](C)[C@H]1CC[C@H]2[C@@H]3CC(=O)[C@H]4C[C@@H](O)CC[C@]4(C)[C@H]3CC[C@]12C [cathasterone]
biochemical complementation of the dwf7-2 allele (dwf7-2): biochemically complemented

CC(C)[C@H](C)C[C@H](O)[C@@H](C)[C@H]1CC[C@H]2[C@@H]3CC[C@H]4C[C@@H](O)CC[C@]4(C)[C@H]3CC[C@]12C [6-deoxoCT]
elongation of dwf7-1 pedicels in response to BRs (dwf7-1 plants [1]): greater than twofold | elongation of pedicels and internodes of dwf7-2 (dwf7-2): significant elongation
